From patent US20090238852A1, “METHODS FOR CONTROLLING INTRACELLULAR CALCIUM LEVELS ASSOCIATED WITH AN ISCHEMIC EVENT” (University of Utah Research Foundation, priority 2008, published 2009) come the findings set out here.

In assay [1] the test system is myeloperoxidase (MPO) activity. In words: Porcine ischemia/reperfusion model: myeloperoxidase activity in myocardium. In kind it is in vivo, pig. The conditions noted are these: ODSH 45 mg/kg; FIG. 11. The source says:
(§1) Arterial access was achieved via bilateral femoral artery cut-downs for the insertion of 8F sheaths. Central venous and carotid access was achieved via a neck incision to expose the external jugular vein and common carotid artery. Animals were then anticoagulated with 50 U/kg of unfractionated heparin to maintain an activated clotting time (ACT) between 250-350 seconds, prior to ischemia. A 7-8 Fr pigtail catheter was placed in the left ventricular cavity to measure pressure and for injection of 15 μneutron-activated microspheres. […] Baseline cardiodynamic and hemodynamic data were measured using a solid state transducer-tipped catheter in the left ventricle (Millar Instruments, Houston, Tex.) to measure left ventricular pressure, and a fluid-filled transducer connected to the side port of the femoral artery sheath to measure peripheral arterial pressure. Approximately 3-4 million neutron-activated microspheres (BioPhysics Assay Laboratory, Inc, Worcester, Ma) (15 μm) were delivered through a pig-tail catheter into the left ventricle over a 30 second period, to quantify regional myocardial blood flow (RMBF). […] Balloon occlusion time was 75 minutes with coronary occlusion confirmed by contrast angiography, ST segment changes on electrocardiography, and quantitatively confirmed by microspheres delivered at the end of ischemia, as described above. […]

The test system of assay [2] is pigs, 75 min LAD balloon occlusion and 3 h reperfusion. The assay can be described thus: Closed chest porcine model of cardiac ischemia/reperfusion: infarct size (NEC/AAR). Particulars: repeated at 90 min reperfusion. In kind it is in vivo, pig.
Description: To study the utility of 2-O, 3-O desulfated heparin (ODSH) in reducing ischemic tissue injury from injurious Ca^++ overload, a closed chest porcine model of cardiac ischemia was used. The study was designed to determine if previous findings indicating the protective effect of ODSH in reducing myocardial infarction reperfusion injury in open chest dogs were reproducible in an animal model of ischemia/reperfusion injury more relevant to humans. […] Yorkshire-cross pigs (Palmetto Research Swine, Reevesville, S.C.) of either sex, weighing 25-35 kg, were used for the experiment was employed. Animals were premedicated with an intramuscular injection of ketamine (30 mg/kg), acepromazine (1.1 mg/kg), and atropine (0.05 mg/kg). Pigs were induced with an IV injection of thiopental (10 mg/kg) and maintained with continuous inhalation of isoflurane (1-1.5%). Aspirin (81 mg) was administered by IV prior to the experiment.
as §1, with “artery.” for “artery. Animals were then anticoagulated with 50 U/kg of unfractionated heparin to maintain an activated clotting time (ACT) between 250-350 seconds, prior to ischemia. A 7-8 Fr pigtail catheter was placed in the left ventricular cavity to measure pressure and for injection of 15 μneutron-activated microspheres.”

Regarding 2-O, 3-O desulfated heparin [ODSH], the “MPO activity in ischemic-reperfused myocardium” value in assay [1] was “significantly reduced”. Besides, the “infarct size (NEC/AAR) compared to control” value in assay [2] (ODSH 5 mg/kg IV bolus 2 min before balloon deflation) is on record as “No significant reduction in infarct size”. For the same substance, the “infarct size (NEC/AAR) relative to control” value in assay [2] (ODSH 15 mg/kg IV bolus 2 min before balloon deflation) and in assay [2] (ODSH 45 mg/kg IV bolus 2 min before balloon deflation) was “significant infarct size reduction” each time.
